For test [1], the target named is Neuronal acetylcholine receptor; alpha4/beta2 (Rattus norvegicus, UniProt P09483+P12390). Description: Displacement of [3H]cytisine from alpha4beta2 nicotinic acetylcholine receptor in rat brain minus cerebellum membrane. It is filed as tissue-based. A general note: Loss of bound radioactivity is the signal in a displacement assay; it reports binding, not function.

The species named for the next test is Rattus norvegicus. Description: Selectivity ratio of Ki for alpha7 nicotinic acetylcholine receptor to Ki for alpha4beta2 nicotinic acetylcholine receptor in rat brain minus cerebellum membrane. It is filed as tissue-based.
Test [2] addresses Neuronal acetylcholine receptor subunit alpha-7 (Rattus norvegicus, UniProt Q05941). In words: Displacement of [3H]A585539 from alpha7 nicotinic acetylcholine receptor in rat brain minus cerebellum membrane. In kind it is tissue-based.
The target in test [3] is T1, Neuronal acetylcholine receptor; alpha4/beta2 (Homo sapiens, UniProt P17787+P43681). In words: Agonist activity at human recombinant alpha4beta2 nicotinic acetylcholine receptor expressed in HEK293 cells assessed as changes in intracellular calcium level at 100 uM by FLIPR relative to nicotine. It is filed as functional, cell-based.
T1 sequence (P17787 whole entry): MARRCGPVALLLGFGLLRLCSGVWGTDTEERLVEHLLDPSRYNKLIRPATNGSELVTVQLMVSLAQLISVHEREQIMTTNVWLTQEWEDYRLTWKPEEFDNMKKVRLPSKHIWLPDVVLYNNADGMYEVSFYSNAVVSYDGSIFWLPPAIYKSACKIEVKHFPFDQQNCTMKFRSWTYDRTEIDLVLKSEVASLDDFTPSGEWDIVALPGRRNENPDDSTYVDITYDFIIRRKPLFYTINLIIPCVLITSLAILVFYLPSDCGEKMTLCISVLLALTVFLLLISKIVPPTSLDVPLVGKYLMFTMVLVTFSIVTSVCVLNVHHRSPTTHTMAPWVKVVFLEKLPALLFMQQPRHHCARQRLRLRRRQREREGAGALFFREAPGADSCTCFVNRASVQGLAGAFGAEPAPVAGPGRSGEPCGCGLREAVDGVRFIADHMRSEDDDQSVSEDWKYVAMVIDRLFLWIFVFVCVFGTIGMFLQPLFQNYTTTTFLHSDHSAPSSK
T1 sequence (P43681 whole entry): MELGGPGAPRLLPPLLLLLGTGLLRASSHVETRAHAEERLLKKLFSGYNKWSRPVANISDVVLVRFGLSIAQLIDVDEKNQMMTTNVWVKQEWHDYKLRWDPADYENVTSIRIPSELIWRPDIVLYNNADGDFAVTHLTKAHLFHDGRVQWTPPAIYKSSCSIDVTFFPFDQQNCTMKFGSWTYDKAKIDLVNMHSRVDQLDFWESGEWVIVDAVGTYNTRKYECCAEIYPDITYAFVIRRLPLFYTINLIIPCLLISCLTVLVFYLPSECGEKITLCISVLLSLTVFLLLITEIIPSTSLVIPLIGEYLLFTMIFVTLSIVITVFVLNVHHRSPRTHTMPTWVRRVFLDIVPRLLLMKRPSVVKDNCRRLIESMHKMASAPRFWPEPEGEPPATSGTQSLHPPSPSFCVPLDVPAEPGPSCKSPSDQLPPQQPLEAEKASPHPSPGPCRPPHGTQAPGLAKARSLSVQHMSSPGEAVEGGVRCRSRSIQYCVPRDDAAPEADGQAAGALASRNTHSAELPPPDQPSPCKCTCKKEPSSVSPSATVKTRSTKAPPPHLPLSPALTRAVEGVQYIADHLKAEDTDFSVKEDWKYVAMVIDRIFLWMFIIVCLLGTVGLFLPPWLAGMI
Test [4] has as its target T1, Neuronal acetylcholine receptor; alpha4/beta2. Description: Agonist activity at human recombinant alpha4beta2 nicotinic acetylcholine receptor expressed in HEK293 cells assessed as changes in intracellular calcium level by FLIPR. In kind it is functional, cell-based.
Test [5] addresses T2, Neuronal acetylcholine receptor subunit alpha-7 (Homo sapiens, UniProt P36544). In words: Agonist activity at human recombinant alpha7 nicotinic acetylcholine receptor expressed in xenopus laevis oocytes by parallel oocyte electrophysiological assay. In kind it is functional, cell-based.
Test [6] concerns the target T2, Neuronal acetylcholine receptor subunit alpha-7. Description: Agonist activity at human recombinant alpha7 nicotinic acetylcholine receptor expressed in xenopus laevis oocytes at 100 uM by parallel oocyte electrophysiological assay relative to acetylcholine. In kind it is functional, cell-based.

Sequence of Neuronal acetylcholine receptor subunit alpha-7 (Rattus norvegicus, UniProt Q05941) (Q05941 whole entry): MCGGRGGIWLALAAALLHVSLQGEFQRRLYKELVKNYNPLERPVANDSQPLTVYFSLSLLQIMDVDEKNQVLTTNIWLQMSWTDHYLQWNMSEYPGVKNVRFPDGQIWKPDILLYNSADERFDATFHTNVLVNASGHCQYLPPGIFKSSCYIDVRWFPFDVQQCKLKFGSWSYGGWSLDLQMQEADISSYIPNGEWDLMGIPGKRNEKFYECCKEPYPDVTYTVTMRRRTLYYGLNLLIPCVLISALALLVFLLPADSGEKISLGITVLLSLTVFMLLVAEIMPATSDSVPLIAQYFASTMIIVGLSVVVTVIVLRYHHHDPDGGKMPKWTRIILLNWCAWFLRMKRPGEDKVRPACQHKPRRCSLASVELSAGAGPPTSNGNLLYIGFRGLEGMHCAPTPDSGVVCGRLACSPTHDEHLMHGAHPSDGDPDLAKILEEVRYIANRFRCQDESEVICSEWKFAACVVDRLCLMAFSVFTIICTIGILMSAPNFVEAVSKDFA
T2 sequence (P36544 whole entry): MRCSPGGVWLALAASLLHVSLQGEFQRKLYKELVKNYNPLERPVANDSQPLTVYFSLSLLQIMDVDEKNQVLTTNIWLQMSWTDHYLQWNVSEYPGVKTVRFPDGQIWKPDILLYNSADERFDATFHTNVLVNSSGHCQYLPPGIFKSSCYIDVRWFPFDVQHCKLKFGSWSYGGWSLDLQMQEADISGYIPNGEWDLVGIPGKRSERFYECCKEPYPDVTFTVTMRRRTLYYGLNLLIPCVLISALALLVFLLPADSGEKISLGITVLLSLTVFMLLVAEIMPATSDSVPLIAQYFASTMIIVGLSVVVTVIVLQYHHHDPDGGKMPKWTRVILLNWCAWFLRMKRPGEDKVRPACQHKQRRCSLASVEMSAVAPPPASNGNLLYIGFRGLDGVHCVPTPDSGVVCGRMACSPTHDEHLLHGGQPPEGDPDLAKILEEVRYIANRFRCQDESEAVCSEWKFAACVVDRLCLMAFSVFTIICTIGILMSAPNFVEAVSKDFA
Sequence of Neuronal acetylcholine receptor; alpha4/beta2 (Rattus norvegicus, UniProt P09483+P12390) (P09483 whole entry): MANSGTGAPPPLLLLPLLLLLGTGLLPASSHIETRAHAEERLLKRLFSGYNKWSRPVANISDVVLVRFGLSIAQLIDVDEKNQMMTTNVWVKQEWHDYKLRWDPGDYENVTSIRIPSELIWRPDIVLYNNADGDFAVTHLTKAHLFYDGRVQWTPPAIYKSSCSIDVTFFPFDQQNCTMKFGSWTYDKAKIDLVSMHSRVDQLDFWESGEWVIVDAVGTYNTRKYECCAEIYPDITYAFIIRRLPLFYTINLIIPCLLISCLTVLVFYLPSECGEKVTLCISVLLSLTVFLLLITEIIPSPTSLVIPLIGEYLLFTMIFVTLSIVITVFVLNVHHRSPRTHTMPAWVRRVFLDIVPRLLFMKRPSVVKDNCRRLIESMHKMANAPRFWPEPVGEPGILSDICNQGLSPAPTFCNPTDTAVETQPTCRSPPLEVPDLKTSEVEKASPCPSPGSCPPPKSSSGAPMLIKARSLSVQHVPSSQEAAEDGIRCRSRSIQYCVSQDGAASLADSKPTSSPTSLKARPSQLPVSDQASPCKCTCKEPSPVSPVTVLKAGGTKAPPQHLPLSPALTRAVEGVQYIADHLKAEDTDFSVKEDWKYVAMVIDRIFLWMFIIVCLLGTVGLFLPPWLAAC
Sequence of Neuronal acetylcholine receptor; alpha4/beta2 (Rattus norvegicus, UniProt P09483+P12390) (P12390 whole entry): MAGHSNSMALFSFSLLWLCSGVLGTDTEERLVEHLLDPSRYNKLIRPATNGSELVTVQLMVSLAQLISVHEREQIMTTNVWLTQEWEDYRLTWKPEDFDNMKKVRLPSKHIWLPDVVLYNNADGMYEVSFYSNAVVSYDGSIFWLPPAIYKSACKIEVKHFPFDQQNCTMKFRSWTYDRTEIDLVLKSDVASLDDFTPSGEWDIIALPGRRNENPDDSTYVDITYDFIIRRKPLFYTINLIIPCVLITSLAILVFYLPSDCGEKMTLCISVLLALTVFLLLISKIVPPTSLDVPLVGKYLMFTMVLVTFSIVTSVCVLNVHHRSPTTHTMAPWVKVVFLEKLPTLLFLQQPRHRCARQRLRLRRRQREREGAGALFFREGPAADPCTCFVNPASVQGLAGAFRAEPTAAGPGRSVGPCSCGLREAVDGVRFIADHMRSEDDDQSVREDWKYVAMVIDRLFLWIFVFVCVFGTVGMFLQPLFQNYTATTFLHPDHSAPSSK

As a reminder, the Ki is a measure of affinity in units of concentration, obtained from inhibition or displacement. Lower therefore signals tighter binding. In the case of `CN1C[C@@H]2CN(c3ccc(-c4cccc([N+](=O)[O-])c4)nc3)C[C@@H]2C1`, the inhibition constant (Ki) in test [1] turned out to be 2600 nM; in test [2], 30 nM. For the same molecule, the Ratio Ki in the test listed under Rattus norvegicus turned out to be 87.
The like results for `c1ccc(-c2ccc(N3C[C@H]4CNC[C@H]4C3)cn2)cc1` were, in that order, 96 nM, 8.4 nM and 0.09.
`CN1C[C@@H]2CN(c3ccc(-c4ccccc4)cn3)C[C@@H]2C1`: the Ki in test [1] is > 100000 nM; in test [2], 17 nM. Also, the Ratio Ki in the test filed under Rattus norvegicus was > 6000.
As for `CCCOc1cncc(N2C[C@H]3CNC[C@H]3C2)c1`, the figures for the Ki in test [1] and in test [2] were 0.041 nM and > 10000 nM, respectively. The Ratio Ki in the test listed under Rattus norvegicus is > 240000.
As a reminder, the EC50 is the concentration needed to bring the measured effect to its halfway point. With `CCOc1cncc(N2C[C@H]3CNC[C@H]3C2)c1`, the figures for the Activity in test [3] and in test [6] were 118% and 37%, respectively. In addition, the inhibitory constant (Ki) stood at 0.035 nM in test [1] and 1440 nM in test [2]. Further, the EC50 in test [4] is 370 nM; in test [5], > 100000 nM. For the same molecule, the Ratio Ki in the test listed under Rattus norvegicus was 41000.
`Cc1cccc(-c2ccc(N3C[C@H]4CN(C)C[C@H]4C3)cn2)c1`: the results for the Ki in test [1] and in test [2] were 750 nM and 6.7 nM, respectively. Also, the Ratio Ki in the test filed under Rattus norvegicus was determined as 112.
On to `C[N+]1(C)C[C@H]2CN(c3ccc(Cl)nc3)C[C@H]2C1`, for which the Ki in test [1] was found to be 210 nM; in test [2], 340 nM. Further, the Ratio Ki in the test listed under Rattus norvegicus came out at 1.6.
On to `Cc1cc(C)cc(-c2ccc(N3C[C@H]4CN(C)C[C@H]4C3)nn2)c1`, for which the inhibitory constant (Ki) in test [1] is > 100000 nM; in test [2], > 10000 nM.
For the molecule `CN1C[C@@H]2CN(c3ccc(-c4ccc5[nH]ccc5c4)nn3)C[C@@H]2C1`, the Activity in test [3] was < 10%; in test [6] it was 87%. Besides, the figures for the Ki in test [1] and in test [2] were > 100000 nM and 0.24 nM, respectively. In addition, the EC50 is > 100000 nM in test [4] and 320 nM in test [5]. Further, the Ratio Ki in the test listed under Rattus norvegicus is > 400000.
Consider `c1ccc(-c2cncc(N3C[C@H]4CNC[C@H]4C3)c2)cc1`, for which the Activity in test [3] and in test [6] was < 10% throughout. For the same molecule, the Ki in test [1] amounted to 0.16 nM; in test [2], 4560 nM. In addition, the EC50 in test [4] and in test [5] was > 100000 nM each time. The Ratio Ki in the test filed under Rattus norvegicus is 28000.
Regarding `c1ccc(N2C[C@H]3CNC[C@H]3C2)nc1`, the Ki in test [1] was 260 nM; in test [2], > 10000 nM. The Ratio Ki in the test filed under Rattus norvegicus is > 38.
The like results for `c1ccc(-c2ccc(N3C[C@H]4CNC[C@H]4C3)nc2)cc1` were, in that order, > 100000 nM, 30 nM and > 3300.
In the case of `c1ncc(N2C[C@H]3CNC[C@H]3C2)cc1N1CCOCC1`, the Ki is 47 nM in test [1] and > 10000 nM in test [2]. The Ratio Ki in the test listed under Rattus norvegicus was > 210.
Consider `COc1ccc(-c2ccc(N3C[C@H]4CN(C)C[C@H]4C3)nn2)cc1`, for which the Ki in test [1] is > 100000 nM; in test [2], 22 nM. Moreover, the Ratio Ki in the test filed under Rattus norvegicus is > 4500.
The like results for `CN1C[C@@H]2CN(c3ccc(-c4ccc(O)cc4)nn3)C[C@@H]2C1` were, in that order, > 10000 nM, 5.3 nM and > 1800.
Turning to `c1ccc(-c2ccc(N3C[C@H]4CNC[C@H]4C3)nn2)cc1`, the Activity in test [3] was < 10%; in test [6] it was 29%. Besides, the results for the Ki in test [1] and in test [2] were 5320 nM and 17.5 nM, respectively. Besides, the EC50 in test [4] is > 100000 nM; in test [5] it was 1150 nM. The Ratio Ki in the test listed under Rattus norvegicus was 300.
Regarding `c1ccc(COc2cncc(N3C[C@H]4CNC[C@H]4C3)c2)cc1`, the Ki was 0.058 nM in test [1] and > 10000 nM in test [2]. Besides, the Ratio Ki in the test filed under Rattus norvegicus is > 170000.
In the case of `Cc1ccc(-c2ccc(N3C[C@H]4CN(C)C[C@H]4C3)nn2)cc1`, the Ki in test [1] was > 100000 nM; in test [2], 11.6 nM. In the test listed under Rattus norvegicus, the Ratio Ki is > 8600.
Take `Brc1cncc(N2C[C@H]3CNC[C@H]3C2)c1`: the Ki in test [1] turned out to be 0.06 nM; in test [2], 66 nM. Besides, the Ratio Ki in the test listed under Rattus norvegicus is 1100.
The like results for `CN1C[C@@H]2CN(c3ccc(-c4ccccc4)nc3)C[C@@H]2C1` were, in that order, 28000 nM, 9.6 nM and 0.0003.
The like results for `Oc1cncc(N2C[C@H]3CNC[C@H]3C2)c1` were, in that order, 0.75 nM, > 10000 nM and > 13000.
As for `Cc1ccccc1-c1ccc(N2C[C@H]3CN(C)C[C@H]3C2)nn1`, the Ki in test [1] was > 10000 nM; in test [2], 690 nM. Besides, the Ratio Ki in the test filed under Rattus norvegicus was > 14.
For `CN1C[C@@H]2CN(c3cccnc3)C[C@@H]2C1`, the values for the Ki in test [1] and in test [2] were 26 nM and 1590 nM, respectively. Further, in the test listed under Rattus norvegicus, the Ratio Ki amounted to 61.
`Cc1cccc(-c2ccc(N3C[C@H]4CN(C)C[C@H]4C3)nn2)c1`: the Ki is > 100000 nM in test [1] and 4.42 nM in test [2]. In addition, the Ratio Ki in the test filed under Rattus norvegicus was > 22000.
On the same counts, the results for `CCN1C[C@@H]2CN(c3ccc(-c4ccccc4)nn3)C[C@@H]2C1` are > 100000 nM, 330 nM and > 300.
The like results for `Clc1ccc(N2C[C@H]3CNC[C@H]3C2)cn1` were, in that order, 0.2 nM, 180 nM and 900.
On the same counts, the results for `CN1C[C@@H]2CN(c3cncc(-c4ccccc4)c3)C[C@@H]2C1` are 51 nM, > 10000 nM and > 190.
Turning to `COc1cccc(-c2ccc(N3C[C@H]4CN(C)C[C@H]4C3)cn2)c1`, the inhibitory constant (Ki) in test [1] is > 100000 nM; in test [2], 5 nM. In addition, the Ratio Ki in the test listed under Rattus norvegicus is > 2000.
Take `c1cncc(N2C[C@H]3CNC[C@H]3C2)c1`: the Activity turned out to be 146% in test [3] and 129% in test [6]. In addition, the Ki was determined as 0.12 nM in test [1] and 51 nM in test [2]. Besides, the EC50 was 40 nM in test [4] and 4470 nM in test [5]. Besides, the Ratio Ki in the test filed under Rattus norvegicus was determined as 420.
For the molecule `CC(C)Oc1cncc(N2C[C@H]3CNC[C@H]3C2)c1`, the Ki in test [1] is 0.051 nM; in test [2], > 10000 nM. Moreover, the Ratio Ki in the test filed under Rattus norvegicus was > 200000.
With `CN1C[C@@H]2CN(c3ccc(-c4cccc(O)c4)nn3)C[C@@H]2C1`, the Ki worked out at 21000 nM in test [1] and 7.9 nM in test [2]. Further, the Ratio Ki in the test filed under Rattus norvegicus worked out at 2660.
On to `C[N+]1(C)C[C@H]2CN(c3ccc(-c4ccccc4)nn3)C[C@H]2C1`, for which the Ki was > 10000 nM in test [1] and 5.98 nM in test [2]. Moreover, the Ratio Ki in the test filed under Rattus norvegicus is > 1600.
For the molecule `CN1C[C@@H]2CN(c3ccc(-c4ccccc4)nn3)C[C@@H]2C1`, the Activity was < 10% in test [3] and 52% in test [6]. Further, the Ki in test [1] is > 100000 nM; in test [2], 10.8 nM. Also, the EC50 is > 100000 nM in test [4] and 4260 nM in test [5]. Further, the Ratio Ki in the test filed under Rattus norvegicus is > 9200.
`c1ccc(-c2ccc(N3C[C@H]4CNC[C@H]4C3)cc2)cc1`: the Ki in test [1] is > 10000 nM; in test [2] it was 28 nM. Besides, the Ratio Ki in the test listed under Rattus norvegicus is > 350.
On the same counts, the results for `CN1C[C@@H]2CN(c3ccc(-c4ccccc4)cc3)C[C@@H]2C1` are > 100000 nM, 12 nM and > 8300.
As to `CN1C[C@@H]2CN(c3ccc(Cl)nc3)C[C@@H]2C1`, the Ki is 38 nM in test [1] and > 10000 nM in test [2]. Further, the Ratio Ki in the test filed under Rattus norvegicus is > 260.
As to `c1cc(N2C[C@H]3CNC[C@H]3C2)ccn1`, the inhibitory constant (Ki) in test [1] and in test [2] was > 10000 nM throughout.
Consider `CN1C[C@@H]2CN(c3ccc(-c4cccc(-c5ccccc5)c4)nc3)C[C@@H]2C1`, for which the inhibition constant (Ki) in test [1] is 9800 nM; in test [2] it was 44 nM. Besides, the Ratio Ki in the test filed under Rattus norvegicus amounted to 220.
The like results for `Brc1ccc(N2C[C@H]3CNC[C@H]3C2)cn1` were, in that order, 0.28 nM, 290 nM and 1000.
As to `COc1cncc(N2C[C@H]3CNC[C@H]3C2)c1`, the results for the Ki in test [1] and in test [2] were 0.081 nM and 240 nM, respectively. Also, the Ratio Ki in the test filed under Rattus norvegicus is 2900.

(Values after ChEMBL document CHEMBL1137790, “Octahydropyrrolo[3,4-c]pyrrole: a diamine scaffold for construction of either alpha4beta2 or alpha7-selective nicotinic acetylcholine receptor (nAChR) ligands. Substitutions that switch subtype selectivity” (J Med Chem, 2009).)
